# Measurements reported in article PMC10010313, “A Phase I Study of Pelabresib (CPI-0610), a Small-Molecule Inhibitor of BET Proteins, in Patients with Relapsed or Refractory Lymphoma” (Cancer Research Communications, 2022).
# Values joined by “and” are separate entries in the source; they are usually repeats but may differ in a detail not shown here. Equal values may be shown once. Read-outs that look alike come from different tables or passages of the source.
# Columns and labels:
# [1] = human, in vivo
# Procedure: (§5) To characterize the plasma PK of pelabresib for the first dose and at steady state for multiple dosing, blood samples were taken before and at 0.5, 1, 1.5, 2, 3, 4, 6, 8, and 24 hours after the initial dose; before dosing on Day 8; before and at 0.5, 1, 1.5, 2, 3, 4, 6, 8, 24, 48, 72, 96, and 120 hours after the Day 14 dose; and prior to dosing on Day 1 of Cycle 2. Blood samples were centrifuged within 30 minutes of collection to harvest the plasma which was promptly stored in cryovials maintained at −80°C. The concentration of CPI-0610 in plasma samples was determined by reverse-phase high performance liquid chromatography with tandem mass spectrometric detection. The assay was validated and applied to the analysis of study samples according to the recommendations in the current FDA guidance. At the lowest concentration included in the calibration curves, which was 0.25 ng/mL, interday accuracy was within 0.3% of the nominal concentration and the precision was 3.0%. Interday accuracy ranged from 99.9 to 101.2% and the precision ranged from 4.0 to 6.0% for all other calibration standards. Actual time points were calculated as the difference between the blood sample collection time and the time that the drug was taken. The plasma concentration–time data were analyzed by noncompartmental methods using WinNonlin version 5.0.1 (Pharsight Corp). Area under the plasma concentration–time curve from the time of dosing to the time of last sample collected prior to administration of the next dose (AUC0–24) was estimated using the linear-log trapezoidal method. Apparent oral clearance (CL/F) was calculated as the dose divided by the AUC0–24 for the dose given on Day 14. Pharmacokinetic parameters are reported as the geometric mean [geometric coefficient of variation (CV%)] of the values for individual patients at each dose level unless otherwise indicated.
# CCR1 = CCR1 mRNA expression in patient whole blood (qPCR); type: in vivo, human
# Description: (§1) Whole (peripheral) blood samples were also collected at selected time points that coincided with PK sampling. Blood from patients was drawn into PAXgene blood RNA tubes (Becton Dickinson) at the clinical sites and shipped frozen to the Massachusetts General Hospital (MGH, Boston, MA) for processing. RNA was purified using a PAXgene Blood RNA Kit IVD (Qiagen) according to the manufacturer's protocol and quantitated using a Nanodrop 8000 (Thermo Scientific). RNA isolated from PBMCs was used to synthesize cDNA for qPCR analysis and gene expression was assessed by qPCR using a CCR1 or IL8 TaqMan assay. Housekeeping genes were assessed using B2M TaqMan assay, PPIB Universal Probe Library (UPL) or TaqMan assay. Relative gene expression for CCR1 and IL8 was determined after normalization to the geometric mean of the two housekeeping genes (B2M and PPIB).
# [2] = Plasma pharmacokinetics (LC-MS/MS, noncompartmental)
# Procedure: as §5
# NF-κB signaling = conditions: preclinical studies; cited from earlier work
# MYC = test system: MYC; parameters: method as in PMID 21949397; conditions: cited from earlier work
# [3] = test system: patients with relapsed or refractory lymphoma; experiment: Dose-limiting toxicities / MTD determination (3 + 3 dose escalation); type: in vivo
# Procedure: (§2) Pelabresib was administered once daily (QD) for 14 days followed by a 7-day break, in continuous 21-day cycles to prevent/ameliorate thrombocytopenia. Cohorts of 3 to 6 patients were sequentially enrolled with increasing doses of pelabresib (6, 12, 24, 48, 80, 120, 170, 230, and 300 mg with the capsule formulation and 125 mg and 225 mg with the micronized tablet formulation) until the MTD was determined. Pelabresib was administered under fasting conditions (no food intake 2 hours before until 1 hour after study drug administration).
# (§3) The primary objective of the study was to determine the MTD of pelabresib with characterization of dose-limiting toxicities (DLT) as a primary endpoint. Secondary objectives included adverse events (AE) and serious adverse events (SAE); tumor response according to 2007 Revised Response Criteria for Malignant Lymphoma ([13]); plasma concentration of pelabresib; PK parameters; changes in expression of MYC and other genes sensitive to BET inhibition; and changes in levels of selected mRNAs that are expressed in PBMCs and are sensitive to BET inhibition.
# (§4) The MTD of pelabresib was defined as the highest dose that could be given without causing DLT in 33% or more of the patients treated at that dose (capsules or tablets). Dose-escalation followed a traditional “3 + 3” design based on the frequency of DLT. All patients who were treated with at least 1 dose of pelabresib were included in the Safety Population and used for all tabulations of demographic information, baseline characteristics, safety, PK, pharmacodynamic, and efficacy analyses.
# [4] = parameters: method as in PMID 21949397; conditions: cited from earlier work
# IL8 = IL8 mRNA expression in patient whole blood (qPCR); type: in vivo, human
# Description: as §1
# platelet count = experiment: Platelet count values versus pelabresib dose; type: in vivo, human; conditions: QD 14 days on, 7 days off
# Description: To accommodate for different baseline platelet count values in different patients, changes in platelet count values were expressed as a fraction or ratio of the baseline value. There was a strong correlation between the Day 14:Day 1 platelet count ratio and pelabresib dose (R^2 = 0.81).
# clinical = conditions: human, in vivo
# Procedure: as §5
# [5] = test system: relapsed or refractory lymphoma; experiment: Tumor response, 2007 Revised Response Criteria for Malignant Lymphoma; type: in vivo, human
# Description: as §3, §4
# [6] = test system: ABC- diffuse large B-cell lymphoma (DLBCL) and Burkitt lymphoma (BL) cell lines; conditions: preclinical studies; cited from earlier work
# [7] = test system: patients with relapsed or refractory lymphoma; experiment: Treatment-emergent adverse events, phase 1 study 0610–01; type: in vivo
# Description: Study 0610–01 was a first-in-human phase 1, multi-center, open-label, dose-escalation study of pelabresib (CPI-0610) in patients with relapsed or refractory lymphoma (NCT01949883).
# Eligible patients for treatment with pelabresib were adults with relapsed non-Hodgkin or Hodgkin lymphoma after at least one prior therapy or who were not eligible for high-dose chemotherapy and autologous stem cell transplantation or had refused high-dose chemotherapy and autologous stem cell transplantation. Patients were required to have platelet count ≥75 × 10^9/L, absolute neutrophil count ≥1.0 × 10^9/L, and Eastern Cooperative Oncology Group performance status of 2 or less.
# as §2, §3, §4
# [8] = test system: IL8 and CCR1 gene expression; experiment: PK/PD analysis of maximum gene suppression versus exposure (Emax model); type: in vivo, human
# Procedure: To further explore the relationship between pelabresib exposure and suppression of gene expression, individual maximum gene suppression (the nadir of individual gene expression versus time profiles) was plotted as a continuous function of individual Cmax and AUC for both CCR1 and IL8. […] In total, based on this analysis, pharmacodynamic responses of at least 50% suppression in gene expression are evident at AUC and Cmax as low as 4,000 ng/hr/mL and 500 ng/mL, respectively. These exposures were achieved on average at capsule doses of 80 mg and above and were exceeded at both tablet doses.
# [9] = crystalline form of pelabresib; cited from earlier work
# [10] = including both tablet dose levels
# [11] = whole blood, 2, 6 and 8 hours after administration
# [12] = individual maximum gene suppression, inhibitory Emax model
smiles,measurement,setting,value
Cc1noc2c1-c1ccccc1C(c1ccc(Cl)cc1)=N[C@H]2CC(N)=O [pelabresib],Factor to convert tablet doses to capsule doses,[1],1.34
same,Range of time of peak plasma concentrations,[1],0.9 to 7.9 h
same,Mean AUC0–24,[1]; 225 mg,"20,700 ng/h/mL"
same,Accumulation at most,[1]; 14 days,≤ 40%
same,"Accumulation, mean (±SD)",[1]; 14 days,4.3 ± 1.0%
same,Capsule doses at whose exposures suppression of CCR1 was much more apparent,CCR1; [10],≥ 170 mg
same,Earliest time of decreased CCR1 expression postdose,CCR1; whole blood,≤ 2 h
same,Capsule dose above which appreciable changes in expression of CCR1 were shown,CCR1; [11],> 170 mg
same,"Accumulation, mean (±SD)","[2]; capsule formulation, 14 days of continuous QD dosing",20.5 ± 7.2%
same,half-life,"[2]; human, plasma, oral, Terminal half-life, geometric mean (geometric CV), capsule",11.6 h
same,Tablet dose approximately corresponding to the 120 mg capsule dose level,[2]; in vivo,~75 mg
same,"Apparent oral clearance, geometric mean (geometric CV)","[2]; tablet dosage form, Day 14",12.3 (27.2%) L/h
same,Effect on NF-κB signaling activity,NF-κB signaling,downregulation
same,Time by which MYC expression had returned to its baseline value,MYC; single 30 mg/kg oral dose ref 11,≤ 12 h
same,Maximum inhibition of MYC expression in tumor tissue,"MYC; single 30 mg/kg oral dose, 4 hours postdosing, immunodeficient mice ref 11",75%
same,Time of maximum inhibition of MYC expression,"MYC; single 30 mg/kg oral dose, earliest postdosing time point assessed ref 11",4 h
same,Recommended phase 2 dose (RP2D),"[3]; human, in vivo, 14 days",125 mg
same,DLTs: gastrointestinal (GI) events,"[3]; human, in vivo, 21 days",2
same,DLTs: hematologic events,"[3]; human, in vivo, 21 days",5
same,DLTs: rash,"[3]; human, in vivo, 21 days",1
same,Total DLT events considered for dose-escalation,"[3]; human, in vivo, 21 days",8
same,MTD,"[3]; tablet, QD for 14 days with a 7-day break",225 mg
same,Clearance in mice,[4],rapid clearance
same,Dose level with maximum reduction of IL8 expression,IL8; capsule,120 mg
same,Capsule doses at whose exposures suppression of IL8 was much more apparent,IL8; [10],greater than or equal to 120 mg
same,Earliest time of decreased IL8 expression postdose,IL8; whole blood,≤ 2 h
same,Capsule dose above which appreciable changes in expression of IL8 were shown,IL8; [11],above 120 mg
same,Character of decreases in platelet count values,platelet count,"dose dependent, reversible, and non-cumulative"
same,Cmax,clinical; 225 mg,2020 ng/mL
same,bioavailability,clinical; Exposure (bioavailability) of tablet greater than capsule,60%
same,half-life,clinical; Half-life (mean apparent terminal phase),~15 h
same,Tmax,clinical; Median time of peak plasma concentrations,1.9 h
same,Tmax,clinical; Median time to maximum plasma concentrations,2 h
same,Tmax,clinical; Range of time of peak plasma concentrations,0.5 to 7.4 h
same,half-life,"clinical; Terminal half-life, geometric mean (geometric CV)",15.3 h
same,Overall response rate (CR + PR),[5]; 4 of 64 patients,6.2%
same,Patients with prolonged (>6 months) stable disease,[5]; 64 patients,5 patients
same,Best overall response CR,[5]; Overall N = 64,2 (3.1%) n (%) and 2 (3.1) n (%)
same,Best overall response PR,[5]; Overall N = 64,2 (3.1%) n (%) and 2 (3.1) n (%)
same,Best overall response SD,[5]; Overall N = 64,21 (32.8%) n (%) and 21 (32.8) n (%)
same,Overall response rate (CR + PR),"[5]; Overall N = 64, all doses and formulations",4 (6.2) n (%)
same,Lowest dose at which complete remission was achieved,[5]; QD capsule,48 mg
same,"Median duration of response (CR or PR), (range)",[5]; patients with CR or PR,8.4 (6.1–46.1) weeks
same,Time to treatment (CR or PR),[5]; patients with CR or PR,4–18 cycles
same,Time to response (CR or PR),"[5]; patients with CR or PR, 21-day cycles",2–6 cycles
same,Effect on viability,[6],loss of viability
same,Patients who died while on study,"[7]; cause disease progression, none considered related to the investigational product",9 (14.1%) patients (%)
same,SAE disease progression,[7]; grade 5,7 patients
same,Anemia of Grade 3 or higher,"[7]; human, in vivo",7 (10.9%) patients (%)
same,Diarrhea of Grade 3 or higher,"[7]; human, in vivo",4 (6.3%) patients (%)
same,Gastrointestinal TEAEs,"[7]; human, in vivo",43 (67.2%) patients (%)
same,Patients with at least 1 TEAE,"[7]; human, in vivo",64 patients
same,Patients with at least 1 TEAE of Grade 3 or higher intensity,"[7]; human, in vivo",44 (68.8%) patients (%)
same,SAE diarrhea,"[7]; human, in vivo",4 patients
same,SAE disease progression,"[7]; human, in vivo",1 patient
same,SAE pain,"[7]; human, in vivo",2 patients
same,SAE pneumonia,"[7]; human, in vivo",2 patients
same,TEAE Anemia,"[7]; human, in vivo",16 (25.0) n (%)
same,TEAE Decreased appetite,"[7]; human, in vivo",17 (26.6) n (%)
same,TEAE Diarrhea,"[7]; human, in vivo",12 (18.8) n (%)
same,TEAE Dysgeusia,"[7]; human, in vivo",10 (15.6) n (%)
same,TEAE Fatigue,"[7]; human, in vivo",23 (35.9) n (%)
same,TEAE Hyperglycemia,"[7]; human, in vivo",12 (18.8) n (%)
same,TEAE Lymphopenia,"[7]; human, in vivo",13 (20.3) n (%)
same,TEAE Nausea,"[7]; human, in vivo",18 (28.1) n (%)
same,TEAE Thrombocytopenia events,"[7]; human, in vivo",29 (45.3) n (%)
same,TEAE Vomiting,"[7]; human, in vivo",13 (20.3) n (%)
same,TEAEs that led to treatment discontinuation,"[7]; human, in vivo",9 (14.1%) patients (%)
same,Thrombocytopenia events of Grade 3 or higher,"[7]; human, in vivo",13 (20.3%) patients (%)
same,Treatment-emergent SAEs,"[7]; human, in vivo",27 (42.2%) patients (%)
same,"Capsule doses at which these exposures (AUC 4,000, Cmax 500) were achieved on average",[8]; exceeded at both tablet doses,≥ 80 mg
same,AUC at which at least 50% suppression in gene expression is evident,[8]; [12],"≥ 4,000 ng/hr/mL"
same,Cmax at which at least 50% suppression in gene expression is evident,[8]; [12],≥ 500 ng/mL
same,Aqueous solubility,[9],low
